In patent US20230031406A1, “COMPOUNDS AND COMPOSITIONS FOR TREATING CONDITIONS ASSOCIATED WITH NLRP ACTIVITY” (Novartis AG, priority 2018, published 2023):
Where two headings read alike, the source gives them in different places. One block for each molecule: values may come before it.

Test system: PMA-differentiated THP-1 cells
Assay: IL-1β production in PMA-differentiated THP-1 cells stimulated with gramicidin (hTHP-1 assay containing 2% fetal bovine serum; Procedures 1 and 2)
Format: cell-based, human
Conditions: 2% fetal bovine serum
Summary of the method: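 Compound titrations in 0.37% final DMSO were added to THP-1 cells that had been plated after 16-18 h PMA treatment, 50,000 per well in 2% FBS. One hour later the cells received gramicidin (5 μM, 2 h) and were centrifuged. HTRF detected IL-1β in the collected supernatants.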

[1] = Homo sapiens, THP-1, Table B1, class symbols, read-out: Average IC50 of compounds in hTHP-1 assay: hTHP-1 IC50
[2] = Homo sapiens, THP-1, Table B3, hTHP-1 assay, class symbols, read-out: IC50
[3] = Homo sapiens, THP-1, Table B2, numeric bounds, read-out: hTHP-1 IC50
[4] = Table B2, class symbols, read-out: hTHP-1 IC50
[5] = Homo sapiens, THP-1, Table B2, class symbols, read-out: hTHP-1 IC50

- IC50 [1]: 200 to 1000 nM
SMILES: CC(C)(O)c1ncc(S(=N)(=O)NC(=O)Nc2c3c(nc4c2CCC4)CCC3)s1 (centres unmarked) [Compound 128, N-((1,2,3,5,6,7-hexahydrodicyclopenta[b,e]pyridin-8-yl)carbamoyl)-2-(2-hydroxypropan-2-yl)thiazole-5-sulfonimidamide]

- IC50 [2]: 200 to 1000 nM
SMILES: CC1(C)CCc2c1nc1c(c2NC(=O)N=S(N)(=O)c2cc([C@@](C)(O)CO)cs2)CCC1 (stereo partly drawn) [Example 624, 4-((R)-1,2-dihydroxypropan-2-yl)-N′-((3,3-dimethyl-1,2,3,5,6,7-hexahydrodicyclopenta[b,e]pyridin-8-yl)carbamoyl)thiophene-2-sulfonimidamide]

- IC50 [3]: > 30000 nM
SMILES: CC(C)(O)c1ccc(S(N)(=O)=NC(=O)Nc2c3c(nc4c2CCC4(C)C)CCC3)cn1 (single isomer, unassigned) [Compound 673b, (S) or (R)-N′-((3,3-dimethyl-1,2,3,5,6,7-hexahydrodicyclopenta [b,e]pyridin-8-yl)carbamoyl)-6-(2-hydroxypropan-2-yl)pyridine-3-sulfonimidamide]

- IC50 [2]: 200 to 1000 nM
SMILES: CC(=O)c1csc(S(N)(=O)=NC(=O)Nc2c3c(nc4c2CC[C@H]4C)CCC3)c1 (stereo partly drawn) [Example 627, 4-Acetyl-N′-(((R)-3-methyl-1,2,3,5,6,7-hexahydrodicyclopenta[b,e]pyridin-8-yl)carbamoyl)thiophene-2-sulfonimidamide]

- IC50 [3]: > 30000 nM
SMILES: Cc1c(CC2CC2)nc2c(c1NC(=O)N=S(N)(=O)c1cc(C(C)(C)O)cs1)CCC2 (single isomer, unassigned) [Compound 665a, (S) or (R)-N′-((2-(cyclopropylmethyl)-3-methyl-6,7-dihydro-5H-cyclopenta[b]pyridin-4-yl)carbamoyl)-4-(2-hydroxypropan-2-yl)thiophene-2-sulfonimidamide]

- IC50 [4]: 40 to 200 nM
SMILES: CCn1ccc(S(N)(=O)=NC(=O)Nc2c3c(nc4c2CC[C@H]4C)CCC3)n1 (single isomer, unassigned) [Compound 634b, (R) or (S)-1-Ethyl-N′-(((R)-3-methyl-1,2,3,5,6,7-hexahydrodicyclopenta [b,e]pyridin-8-yl)carbamoyl)-1H-pyrazole-3-sulfonimidamide]

- IC50 [4]: 40 to 200 nM
SMILES: CC1(C)CCc2c1nc1c(c2NC(=O)N=S(N)(=O)c2cnc(C(C)(O)CO)s2)CCC1 (single isomer, unassigned) [Compound 201b, (S, R) or (R, R) or (R, S) or (S, S)-2-(1,2-Dihydroxypropan-2-yl)-N′-((3,3-dimethyl-1,2,3,5,6,7-hexahydrodicyclopenta [b,e]pyridin-8-yl)carbamoyl) thiazole-5-sulfonimidamide]

- IC50 [3]: > 30000 nM
SMILES: CC(C)(O)c1ccc(S(N)(=O)=NC(=O)Nc2c3c(nc4c2CCC4)CCC3)cc1 (single isomer, unassigned) [Compound 633a, (S) or (R)-N′-((1,2,3,5,6,7-hexahydrodicyclopenta [b,e]pyridin-8-yl)carbamoyl)-4-(2-hydroxypropan-2-yl)benzene-sulfonimidamide]

- IC50 [5]: 5000 to 30000 nM
SMILES: Cc1c(C2CCC2)nc2c(c1NC(=O)N=S(N)(=O)c1cnc(C(C)(C)O)s1)CCC2 (single isomer, unassigned) [Compound 649a, (R) or (S)-N′-((2-cyclobutyl-3-methyl-6,7-dihydro-5H-cyclopenta[b]pyridin-4-yl)carbamoyl)-2-(2-hydroxypropan-2-yl)thiazole-5-sulfonimidamide]

- IC50 [2]: 200 to 1000 nM
SMILES: CC(C)(O)c1cc(F)c(S(N)(=O)=NC(=O)Nc2c3c(nc(C4CC4)c2C2CC2)CCC3)s1 (centres unmarked) [Example 570, N′-((2,3-dicyclopropyl-6,7-dihydro-5H-cyclopenta[b]pyridin-4-yl)calbamoyl)-3-fluoro-5-(2-hydroxypropan-2-yl)thiophene-2-sulfonimidamide]

- IC50 [5]: 5000 to 30000 nM
SMILES: CC(C)c1nc2c(cc1NC(=O)N=S(N)(=O)c1cnc(C(C)(C)O)s1)CCC2 (centres unmarked) [Compound 601, 2-(2-Hydroxypropan-2-yl)-N′-((2-isopropyl-6,7-dihydro-5H-cyclopenta[b]pyridin-3-yl)carbamoyl)thiazole-5-sulfonimidamide]

- IC50 [1]: 200 to 1000 nM
SMILES: CC1(C)CCc2c1nc1c(c2NC(=O)N=S(N)(=O)c2ccn(C(F)F)n2)CCC1 (centres unmarked) [Compound 122, 1-(difluoromethyl)-N′-((3,3-dimethyl-1,2,3,5,6,7-hexahydrodicyclopenta[b,e]pyridin-8-yl)carbamoyl)-1H-pyrazole-3-sulfonimidamide]

- IC50 [3]: > 30000 nM
SMILES: Cc1c(C2CC2)nc2c(c1NC(=O)N=S(N)(=O)c1ccn(C(F)F)n1)CCC2 (single isomer, unassigned) [Compound 676a, (S) or (R)-N′-((2-cyclopropyl-3-methyl-6,7-dihydro-5H-cyclopenta[b]pyridin-4-yl)carbamoyl)-1-(difluoromethyl)-1H-pyrazole-3-sulfonimidamide]

- IC50 (Table B4, class symbols, read-out: hTHP-1 IC50): 200 to 1000 nM
SMILES: CCn1cc(F)c(S(N)(=O)=NC(=O)Nc2c3c(nc(C(F)(F)F)c2-c2ccccc2F)CCC3)n1 (single isomer, unassigned) [Example 780, (S) or (R)-1-ethyl-4-fluoro-N′-((3-(2-fluorophenyl)-2-(trifluoromethyl)-6,7-dihydro-5H-cyclopenta[b]pyridin-4-yl)carbamoyl)-1H-pyrazole-3-sulfonimidamide]

- IC50 [1]: 5000 to 30000 nM
SMILES: CC(C)c1ccnc(C(C)C)c1NC(=O)N=S(N)(=O)c1cnc(C(C)(C)O)s1 (centres unmarked) [Compound 110, N′-((2,4-diisopropylpyridin-3-yl)carbamoyl)-2-(2-hydroxypropan-2-yl)thiazole-5-sulfonimidamide]

- IC50 [4]: 5000 to 30000 nM
SMILES: CCc1nc2c(c(NC(=O)N=S(N)(=O)c3cnc(C(C)(C)O)s3)c1C1CC1)CCC2 (single isomer, unassigned) [Compound 630a, (S) or (R)-N′-((3-cyclopropyl-2-ethyl-6,7-dihydro-5H-cyclopenta[b]pyridin-4-yl)carbamoyl)-2-(2-hydroxypropan-2-yl)thiazole-5-sulfonimidamide]

- IC50 [4]: 200 to 1000 nM
SMILES: Cc1c(C(F)(F)F)nc2c(c1NC(=O)N=S(N)(=O)c1cnc(C(C)(O)CO)s1)CCC2 (centres unmarked) [Compound 605, 2-(1,2-Dihydroxypropan-2-yl)-N′-((3-methyl-2-(trifluoromethyl)-6,7-dihydro-5H-cyclopenta[b]pyridin-4-yl)cabamoyl)thiazole-5-sulfonimidamide]

- IC50 [5]: 200 to 1000 nM
SMILES: CC1(C)CCc2c1nc1c(c2NC(=O)N=S(N)(=O)c2cnc(C(O)(CO)CO)s2)CCC1 (centres unmarked) [Compound 734, N′-((3,3-dimethyl-1,2,3,5,6,7-hexahydrodicyclopenta[b,e]pyridin-8-yl)carbamoyl)-2-(1,2,3-trihydroxypropan-2-yl)thiazole-5-sulfonimidamide]

- IC50 [4]: 40 to 200 nM
SMILES: CCc1c(C2CC2)nc2c(c1NC(=O)N=S(N)(=O)c1cc(C(C)(C)O)cs1)CCC2 (single isomer, unassigned) [Compound 181b, (R) or (S)-N′((2-cyclopropyl-3-ethyl-6,7-dihydro-5H-cyclopenta[b]pyridin-4-yl)carbamoyl)-4-(2-hydroxypropan-2-yl)thiophene-2-sulfonimidamide]

- IC50 [4]: 5000 to 30000 nM
SMILES: CC(C)(O)c1sc(S(N)(=O)=NC(=O)Nc2c3c(nc4c2CCC4)CCC3)cc1Cl (single isomer, unassigned) [Compound 688b, (S) or (R)-4-Chloro-N′-((1,2,3,5,6,7-hexahydrodicyclopenta [b,e]pyridin-8-yl)carbamoyl)-5-(2-hydroxypropan-2-yl)thiophene-2-sulfonimidamide]

- IC50 [4]: 200 to 1000 nM
SMILES: Cc1c(C(F)(F)F)nc2c(c1NC(=O)N=S(N)(=O)c1cnc(C(C)(O)CO)s1)CCC2 (single isomer, unassigned) [Compound 605h, (S, R) or (R, R)-2-(1,2-Dihydroxypropan-2-yl)-N′-((3-methyl-2-(trifluoromethyl)-6,7-dihydro-5H-cyclopenta[b]pyridin-4-yl)carbamoyl) thiazole-5-sulfonimidamide]

- IC50 (Table B3, hTHP-1 assay, class symbols, read-out: IC50): 200 to 1000 nM
SMILES: Cc1c(C(F)(F)F)nc2c(c1NC(=O)N=S(N)(=O)c1nn(C(F)F)cc1F)CCC2 (single isomer, unassigned) [Example 562]

- IC50 (Homo sapiens, THP-1, Table B1, numeric bounds, read-out: Average IC50 of compounds in hTHP-1 assay: hTHP-1 IC50): > 20000 nM
SMILES: CC(C)c1csc(S(N)(=O)=NC(=O)Nc2c3c(nc4c2CCC4)CCC3)c1 (single isomer, unassigned) [Compound 173b, (S) or (R)-N′-((1,2,3,5,6,7-hexahydrodicyclo-penta[b,e]pyridin-8-yl)carbamoyl)-4-isopropylthiophene-2-sulfonimidamide]

- IC50 [4]: 5000 to 30000 nM
SMILES: CC1(C)CCc2c1nc1c(c2NC(=O)N=S(N)(=O)c2ccn(-c3ccccc3)n2)CCC1 (single isomer, unassigned) [Compound 659a, (S) or (R)-N′-((3,3-dimethyl-1,2,3,5,6,7-hexahydrodicyclopenta [b,e]pyridin-8-yl)carbamoyl)-1-phenyl-1H-pyrazole-3-sulfonimidamide]

- IC50 (Table B1, class symbols, read-out: Average IC50 of compounds in hTHP-1 assay: hTHP-1 IC50): 5000 to 30000 nM
SMILES: CC(C)(O)c1nc(CO)c(S(N)(=O)=NC(=O)Nc2c3c(nc4c2CCC4)CCC3)s1 (single isomer, unassigned) [Compound 150a, (S) or (R)-N′-((1,2,3,5,6,7-hexahydrodicyclo-penta[b,e]pyridin-8-yl)carbamoyl)-4-(hydroxymethyl)-2-(2-hydroxypropan-2-yl)thiazole-5-sulfonimidamide]

- IC50 [5]: 5000 to 30000 nM
SMILES: Cc1c(C2CC2)nc2c(c1NC(=O)N=S(N)(=O)c1cc(C(C)(C)O)n(-c3ccccc3)n1)CCC2 (centres unmarked) [Compound 651, N′-((2-cyclopropyl-3-methyl-6,7-dihydro-5H-cyclopenta[b]pyridin-4-yl)carbamoyl)-5-(2-hydroxypropan-2-yl)-1-phenyl-1H-pyrazole-3-sulfonimidamide]
